Measurements reported in patent US5552402A, “Five-membered heteroaromatic compounds as 5-HT receptor agonists” (Merck, Sharp & Dohme Ltd., priority 1994, dated 1996).
Structures can show the parent of a compound that is named as a salt.

Target: T1, 5-HT1 -like receptor (Oryctolagus cuniculus, UniProt P49144)
T1 construct: contraction of the saphenous vein of New Zealand White rabbits; from tissue; host or cells: saphenous vein of New Zealand White rabbits
Assay: Agonist activity at 5-HT1-like receptor: contraction of the saphenous vein of New Zealand White rabbits
Conditions: rabbit saphenous vein; from plots of percentage 5-HT (1 μM) response against concentration of agonist; read-out: EC50 (agonist potency, contraction of saphenous vein)
Description: The activity of test compounds as agonists of the 5-HT1 -like receptor was measured in terms of their ability to mediate contraction of the saphenous vein of New Zealand White rabbits, using the procedure described in Arch. Pharm., 1990, 342, 111. Agonist potencies were calculated as EC50 values, from plots of percentage 5-HT (1 μM) response against the concentration of the agonist.

T1 sequence (P49144 whole entry): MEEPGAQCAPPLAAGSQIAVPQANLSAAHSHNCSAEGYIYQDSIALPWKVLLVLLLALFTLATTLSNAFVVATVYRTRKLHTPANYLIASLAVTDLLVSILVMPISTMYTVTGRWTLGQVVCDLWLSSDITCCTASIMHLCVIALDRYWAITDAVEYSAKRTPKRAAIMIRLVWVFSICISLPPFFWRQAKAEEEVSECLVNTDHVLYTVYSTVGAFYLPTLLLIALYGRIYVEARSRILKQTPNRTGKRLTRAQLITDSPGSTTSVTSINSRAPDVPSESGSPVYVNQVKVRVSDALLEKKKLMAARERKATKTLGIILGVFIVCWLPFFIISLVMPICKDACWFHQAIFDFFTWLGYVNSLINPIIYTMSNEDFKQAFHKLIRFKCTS

Row | SMILES | EC50
1 | CN1CCN(CCCc2c[nH]c3ccc(-n4cnnc4)cc23)CC1 [Example 5, 1-(3-[5-(1,2,4-Triazol-4-yl)-1H-indol-3-yl]propyl)-4-(methyl)piperazine. 3.5 Hydrogen Oxalate Monohydrate] | < 5 µM
2 | c1cc2[nH]cc(CCCN3CCNCC3)c2cc1-n1cnnc1 [Example 4, 1-(3-[5-(1,2,4-Triazol-4-yl)-1H-indol-3-yl]propyl)-4-(H)-piperazine. 3.5 Hydrogen Oxalate] | < 5 µM
